Test results as given in US9578878B2, “Antimicrobial efficacy of an oregano oil and caprylic acid blend” (Kemin Industries, Inc., priority 2014, dated 2017).

Legend:
Experiment in all cases: Microtiter assay, MIC to inhibit 90% growth
Format in all cases: cell-based
Details in all cases: 24 hours, n = 3
[1] = system: Streptococcus sanguinis (ATCC #BAA-1455)
Description: (§1) For assays to find minimum inhibitory concentrations, all treatments were diluted in 10% DMSO and 0.5% Tween 80 to stabilize the samples.
(§2) Microorganisms Escherichia coli (ATCC #8739), Streptococcus sanguinis (ATCC #BAA-1455), Salmonella enteria subsp. enterica (ex Kauffmann and Edwards) Le Minor and Popoff serovar Typhimurium (ATCC #14028), Staphylococcus aureus (ATCC #6538), Pseudomonas aeruginosa (ATCC #9027), and Candida albicans (ATCC #10231) were obtained from a −80° C. internal stock culture. Aspergillus brasiliensis (ATCC #16404) was obtained from an internal stock solution culture stored at 4° C. E. coli, S. enterica S. aureus, and P. aeruginosa were grown in tryptic soy broth (TSB) and incubated at 37° C. for 24 h. S. sanguinis was grown in brain heart infusion broth (BHI). A. brasiliensis was plated on Sabourand dextrose agar (SDA) and incubated at 25° C. for 5-7 days. C. albicans was grown in Sabourand dextrose broth (SDB) and incubated at 25° C. for 48 h.
(§3) A. brasiliensis was harvested by adding 18 mL sterile saline to the plate and agitating the mold from the agar with a sterile inoculating loop. The inoculum was collected upon agitation. All suspended microbes were diluted with the same type of broth media used to grow each organism until an inoculum in the range of 10^6 CFU/mL was achieved. The inoculum concentration was determined by plate count method. Each strain was identified by plating on the appropriate growth media, E. coli, S. aureus, and P. aeruginosa on tryptic soy agar (Bacto, BD Sciences, Manassas, Va.) and C. albicans and A. brasiliensis on Sabrouand dextrose agar, to ensure there was no contamination of the inoculum.
(§4) Microtiter Assay. A microtiter assay was completed E. coli, S. aureus, P. aeruginosa, S. enteria, S. sanguinis, and C. albicans. Briefly, 10^6 cfu/ml preparations of each organism were made and enumerated using a Petroff-Hausser counting chamber. A 100 μl aliquot of the inoculums was dispensed into microtiter plate wells and a 100 μl aliquot of treatment was dispensed into the same wells. Two separate set of wells were prepared as positive and negative controls, with the positive wells containing 100 μl test organism in growth media and 100 μl sterile phosphate buffer and with the negative control wells containing 100 μl of the same growth media and 100 μl sterile phosphate buffer. The plates were incubated overnight at the appropriate temperature for each organism. A plate reader was used to track the kinetic growth curve using 405 nm and […]. The last time point at 24 hours was averaged and used to determine MIC90. Each treatment was conducted in triplicate wells.

[2] = system: Escherichia coli (ATCC #8739)
Description: as §1, §2, §3, §4

[3] = system: Staphylococcus aureus (ATCC #6538)
Description: as §1, §2, §3, §4

[4] = system: Salmonella enterica
Description: as §1, §2, §3, §4

[5] = system: Pseudomonas aeruginosa (ATCC #9027)
Description: as §1, §2, §3, §4

[6] = system: Candida albicans (ATCC #10231)
Description: as §1, §2, §3, §4

CCCCCCCC(=O)O [Caprylic Acid, octanoic acid]
Minimum Inhibitory Concentration (MIC) to inhibit 90% growth, S. sanguinis [1]: 0.09%
Minimum Inhibitory Concentration (MIC) to inhibit 90% growth, E. coli [2]: 0.27%
Minimum Inhibitory Concentration (MIC) to inhibit 90% growth, S. aureus [3]: 0.09%
Minimum Inhibitory Concentration (MIC) to inhibit 90% growth, S. enterica [4]: 0.90%
Minimum Inhibitory Concentration (MIC) to inhibit 90% growth, P. aeruginosa [5]: 0.90%
Minimum Inhibitory Concentration (MIC) to inhibit 90% growth, C. albicans [6]: 0.09%
